According to patent publication US20230158064A1 (priority 2020, published 2023):

Tests used:
COVID-19 (SARS-CoV-2) = test: Example 2: INOpulse (pulsed iNO) expanded access series in hospitalized patients with hypoxemia due to COVID-19; format: in vivo; conditions: for ratio of oxygen saturation to fraction of inspired oxygen (SpO2/FiO2), median: FiO2 estimated from oxygen flow
[1] = test system: cells infected with SARS-CoV; conditions: cited from earlier work
COVID-19 = test: Example 1: randomized open-label study of pulsed iNO versus standard of care in COVID-19, initial data; format: in vivo; conditions: three COVID-19 patients that completed the regimen
Procedure: This example discloses a randomized, open-label study to assess the efficacy and safety of pulsed iNO compared to standard of care (SOC) in subjects with COVID-19 who are hospitalized and require supplemental oxygen without assisted ventilation. Up to 500 subjects are randomized to receive either (a) iNO 125 mcg/kg IBW/hr for at least 8 hours and up to 24 hours daily for 3 days to 14 days or until resolution or discharge at the discretion of the Investigator, or (b) standard of care. No placebo arm is used. Subjects are followed through Day 28 to assess their clinical status. The primary objective in this study is to verify the efficacy of iNO in subjects with COVID-19. The secondary objective in this study is to evaluate the safety of iNO in subjects with COVID-19.
Outcomes are assessed using an outcome scale assessed 14 days after randomization.
Prior to receiving treatment with iNO, subjects were screened to confirm eligibility. […] Subjects in the iNO group are treated by means of an INOpulse device using a readily available cannula on site.
At day 0 of the study, subjects testing positive for COVID-19 are evaluated for vital signs, blood chemistry, and a chest x-ray or CT scan, and an overall physical exam is performed. Daily vital signs, oxygen measurements (pulse oximetry), methemoglobin levels, and adverse events are assessed through the entire course of treatment. […]

[2] = test system: severe acute respiratory syndrome-related coronavirus (SARS-CoV); conditions: cited from earlier work
SARS = conditions: human, in vivo; cited from earlier work
[3] = one subject (CVD19-029), higher dose 250 mcg/kg IBW/hour (approximately 40 ppm)
[4] = patients that completed iNO treatment and were discharged

SMILES: [N]=O [iNO, nitric oxide]
- Oxygen Saturation (SpO2), Median (COVID-19 (SARS-CoV-2); Discharge): 95%
- Oxygen Therapy (L/min), Median (COVID-19 (SARS-CoV-2); Discharge, n=20): 0.0 L/min
- 8 Point Ordinal Scale, Median (COVID-19 (SARS-CoV-2); Discharge, scale of Table A): 7
- Oxygen Saturation (SpO2), Median (COVID-19 (SARS-CoV-2); Post-iNO): 95%
- 8 Point Ordinal Scale, Median (COVID-19 (SARS-CoV-2); Post-iNO (first day off iNO), scale of Table A): 4
- Oxygen Therapy (L/min), Median (COVID-19 (SARS-CoV-2); Post-iNO, n=22): 2.0 L/min
- ratio of oxygen saturation to fraction of inspired oxygen (SpO2/FiO2), median (COVID-19 (SARS-CoV-2); baseline (start of iNO)): 229
- Oxygen Saturation (SpO2), Median (COVID-19 (SARS-CoV-2); iNO-End): 95%
- Oxygen Therapy (L/min), Median (COVID-19 (SARS-CoV-2); iNO-End, n=22): 3.3 L/min
- 8 Point Ordinal Scale, Median (COVID-19 (SARS-CoV-2); iNO-End, scale of Table A): 4
- Oxygen Therapy (L/min), Median (COVID-19 (SARS-CoV-2); iNO-Start (baseline), n=24, iNO 125 mcg/kg IBW/hour): 5.0 L/min
- Oxygen Saturation (SpO2), Median (COVID-19 (SARS-CoV-2); iNO-Start (baseline), pulse oximetry): 94%
- 8 Point Ordinal Scale, Median (COVID-19 (SARS-CoV-2); iNO-Start, scale of Table A (1 death to 8 not hospitalized, no limitations)): 4
- patients discharged from the hospital at the time of report (COVID-19 (SARS-CoV-2); of 24 COVID-19 positive patients): 19 patients
- deaths (COVID-19 (SARS-CoV-2); of 24 patients, elderly person with severe comorbidities, iNO for less than 24 hours): one
- ratio of oxygen saturation to fraction of inspired oxygen (SpO2/FiO2), median (COVID-19 (SARS-CoV-2); on completion of iNO): 286
- clinical response (COVID-19 (SARS-CoV-2); [3]): responded well and was discharged home without supplemental oxygen
- tolerability (COVID-19 (SARS-CoV-2); [3]): well tolerated
- Time to Discharge from hospitalization (median, range) (COVID-19 (SARS-CoV-2); [4]): 10 (6-23) Days
- Time to Discharge from start of iNO (median, range) (COVID-19 (SARS-CoV-2); [4]): 6 (3-14) Days
- ratio of oxygen saturation to fraction of inspired oxygen (SpO2/FiO2), median (COVID-19 (SARS-CoV-2); period after iNO): 346
- cellular survival of cells infected with SARS-CoV [1]: improves cellular survival
- need for mechanical ventilation (COVID-19): avoid the need for mechanical ventilation
- oxygenation (COVID-19; iNO 125 mcg/kg IBW/hr): improved oxygenation
- replication of SARS-CoV [2]: inhibits the replication
- arterial oxygenation (SARS): improvements in arterial oxygenation
- chest radiography (SARS): reduction in density of lung infiltrates
- supplemental oxygen and need for ventilatory support (SARS): reduction in supplemental oxygen and need for ventilatory support
- time to hospital discharge (SARS): shorter time to hospital discharge
